Several values for one entry are separate records, joined by “and”; a condition that tells them apart may be missing. Equal values may be shown once. Read-outs that look alike come from different tables or passages of the source.
Assay: Phase 1a single ascending dose study: UV-4 in pooled urine, urinary recovery and renal clearance
Type: in vivo, human
Conditions: for dose excreted: human, urine, oral, 48 hours
Description: Serial blood samples were collected at pre-dose (0 hour) and 0.5, 1, 1.5, 2, 2.5, 3, 4, 6, 9, 12, 18, 24, 36, and 48 hours post-dose for assessment of UV-4 concentrations in plasma. Pooled urine samples were collected at pre-dose (-12 to 0 hour) and from 0 to 6, 6 to 12, 12 to 24, and 24 to 48 hours post-dose for assessment of UV-4 concentrations in urine. Plasma and urine concentrations of UV-4 were determined by means of validated, sensitive, and specific high-performance liquid chromatography/tandem mass spectrometric (LC-MS/MS) assays. UV-4 plasma and urine concentrations and PK parameters were listed and summarized by dose, as appropriate. Only the 48 subjects who received active investigational product were included in the PK analysis population.
8.2.3 Specimen Preparation, Handling, and Shipping
8.2.3.1 Instructions for Specimen Preparation, Handling, and Storage
The collected PK blood samples (2 mL) will be placed on ice after blood draw, and within 1 hour centrifuged at room temperature at approximately 3000 revolutions per minute for 15 minutes. Plasma will then be harvested and split into 4 aliquots of approximately 250 μ L and stored frozen at -20°C until shipped.
Urine samples (approximately 10 mL) for determination of UV-4 concentrations in urine will be taken from the total volume provided during each collection period. The total volume of each urine collection will be recorded along with the start/stop time for each urine collection interval.
Analysis of plasma and urine for UV-4 will be performed by the qualified bioanalytical laboratory, Quintiles Bioservices, Inc., Ithaca, New York 14950. Instructions for the proper preparation, handling, storage and shipping of specimens will be provided separately in a study-specific laboratory manual (i.e., Biopacket).
8.2.3.2 Specimen Shipment […]
The following single-dose urine PK parameters will be estimated from the UV-4 urine concentration-time data collected, as appropriate:
Ae Amount of UV-4 excreted in urine unchanged, calculated for each collection interval and cumulatively across intervals fe Fraction of UV-4 excreted in urine unchanged, calculated for each collection interval and cumulatively across intervals […]
Additional UV-4 PK parameters may be calculated at the discretion of the […]
Plasma concentrations and plasma and urine PK parameters will be summarized by treatment using descriptive statistics, as appropriate. Figures for the arithmetic mean (and SD) concentration-time data will be presented for all doses on both a linear and semi-logarithmic scale. Individual concentration-time data will be graphically presented on linear and semi-logarithmic scales. Scatter plots of individual and geometric mean PK parameters versus dose will be presented. Additional graphical presentations of PK data may be added at the discretion of the PK analyst.
Dose proportionality of Cmax, AUC(0-last), and AUC(0-inf) will be assessed graphically and statistically using the power model approach with the logarithm of PK parameters AUC(0-inf) and Cmax as the dependent variables and the logarithm of the dose as the independent variable: ([AUC(0-inf), AUC(0-last), or Cmax]=α *doseβ).
11.4.7 Deviation from Original Analysis Plan
Deviations from the formal statistical analysis plan will be noted in the final Clinical Study

For `COCCCCCCCCCN1C[C@H](O)[C@@H](O)[C@H](O)[C@H]1CO` [UV4], the “CONCENTRATION UV4 in human urine” value (Cohort 1, nominal day 1, nominal hour 0 (pre-dose), individual subjects) was “<LLOQ (0.500) ng/mL”, the “CONCENTRATION UV4 in human urine” value (Cohort 1, nominal day 1, nominal hour 6, individual subjects) was 650 ng/mL and 868 ng/mL and the “CONCENTRATION UV4 in human urine” value (Cohort 1, nominal day 1, nominal hour 12, individual subjects) was 414 ng/mL and 455 ng/mL. The “CONCENTRATION UV4 in human urine” value (Cohort 1, nominal day 2, nominal hour 24, individual subjects) was 99.1 ng/mL and 451 ng/mL, the “CONCENTRATION UV4 in human urine” value (Cohort 1, nominal day 2, nominal hour 48, individual subjects) was 74.6 ng/mL and 166 ng/mL and the “CONCENTRATION UV4 in human urine” value (Cohort 3, nominal day 1, nominal hour 0 (pre-dose), individual subjects) was “<LLOQ (0.500) ng/mL”. The “CONCENTRATION UV4 in human urine” value (Cohort 3, nominal day 1, nominal hour 6, individual subjects) was 6240 ng/mL and 8650 ng/mL and 11700 ng/mL, the “CONCENTRATION UV4 in human urine” value (Cohort 3, nominal day 1, nominal hour 12, individual subjects) was 8820 ng/mL and 2090 ng/mL and 1200 ng/mL and 11200 ng/mL and the “CONCENTRATION UV4 in human urine” value (Cohort 3, nominal day 2, nominal hour 24, individual subjects) was 3300 ng/mL and 754 ng/mL and 614 ng/mL and 3690 ng/mL. For the same molecule, the “CONCENTRATION UV4 in human urine” value (Cohort 3, nominal day 2, nominal hour 48, individual subjects) was 721 ng/mL and 248 ng/mL and 147 ng/mL and 900 ng/mL, the “CONCENTRATION UV4 in human urine” value (Cohort 4, nominal day 1, nominal hour 0 (pre-dose), individual subjects) was “<LLOQ (0.500) ng/mL and 1.11 ng/mL” and the “CONCENTRATION UV4 in human urine” value (Cohort 4, nominal day 1, nominal hour 6, individual subjects) was 46400 ng/mL and 48400 ng/mL and 30900 ng/mL and 140000 ng/mL and 54900 ng/mL and 36000 ng/mL. For the same molecule, the “CONCENTRATION UV4 in human urine” value (Cohort 4, nominal day 1, nominal hour 12, individual subjects) was 3970 ng/mL and 24500 ng/mL and 26000 ng/mL and 15000 ng/mL and 33100 ng/mL and 11200 ng/mL, the “CONCENTRATION UV4 in human urine” value (Cohort 4, nominal day 2, nominal hour 24, individual subjects) was 1230 ng/mL and 7560 ng/mL and 8120 ng/mL and 8370 ng/mL and 4550 ng/mL and 3920 ng/mL and the “CONCENTRATION UV4 in human urine” value (Cohort 4, nominal day 2, nominal hour 48, individual subjects) was 367 ng/mL and 2090 ng/mL and 1260 ng/mL and 1810 ng/mL and 473 ng/mL and 648 ng/mL. For the same molecule, the “CONCENTRATION UV4 in human urine” value (Cohort 5, nominal day 1, nominal hour 0 (pre-dose), individual subjects) was “<LLOQ (0.500) ng/mL”, the “CONCENTRATION UV4 in human urine” value (Cohort 5, nominal day 1, nominal hour 6, individual subjects) was 122000 ng/mL and 104000 ng/mL and 75800 ng/mL and 62800 ng/mL and 65800 ng/mL and 68800 ng/mL and the “CONCENTRATION UV4 in human urine” value (Cohort 5, nominal day 1, nominal hour 12, individual subjects) was 17100 ng/mL and 26900 ng/mL and 16200 ng/mL and 22000 ng/mL and 21200 ng/mL and 18200 ng/mL. For the same molecule, the “CONCENTRATION UV4 in human urine” value (Cohort 5, nominal day 2, nominal hour 24, individual subjects) was 5200 ng/mL and 6760 ng/mL and 4560 ng/mL and 7550 ng/mL and 11900 ng/mL and 7200 ng/mL, the “CONCENTRATION UV4 in human urine” value (Cohort 5, nominal day 2, nominal hour 48, individual subjects) was 706 ng/mL and 961 ng/mL and 775 ng/mL and 2920 ng/mL and 2030 ng/mL and 1860 ng/mL and the “CONCENTRATION UV4 in human urine” value (Cohort 6, nominal day 1, nominal hour 0 (pre-dose), individual subjects) was “<LLOQ (0.500) ng/mL”. The “CONCENTRATION UV4 in human urine” value (Cohort 6, nominal day 1, nominal hour 6, individual subjects) was 357000 ng/mL and 97600 ng/mL and 326000 ng/mL and 75900 ng/mL and 182000 ng/mL and 126000 ng/mL, the “CONCENTRATION UV4 in human urine” value (Cohort 6, nominal day 1, nominal hour 12, individual subjects) was 35000 ng/mL and 12100 ng/mL and 104000 ng/mL and 38000 ng/mL and 15200 ng/mL and 19200 ng/mL and the “CONCENTRATION UV4 in human urine” value (Cohort 6, nominal day 2, nominal hour 24, individual subjects) was 6830 ng/mL and 2550 ng/mL and 4060 ng/mL and 7760 ng/mL and 6220 ng/mL and 12700 ng/mL. The “CONCENTRATION UV4 in human urine” value (Cohort 6, nominal day 2, nominal hour 48, individual subjects) was 1470 ng/mL and 442 ng/mL and 1480 ng/mL and 1390 ng/mL and 830 ng/mL.

In the case of `COCCCCCCCCCN1C[C@H](O)[C@@H](O)[C@H](O)[C@H]1CO` [UV-4, N-(9’-methoxynonyl)-1-deoxynojirimycin], the “Time over which UV-4 was quantifiable in pooled urine” value (all doses (3 to 1000 mg), entire collection interval) is reported as 48 h, the dose excreted (3 to 1000 mg dose range, read-out: UV-4 recovery in urine, range of dose group means) is reported as 39.8 to 55.1% and the dose excreted (10 to 1000 mg dose range, read-out: Urinary recovery, range of dose group means) is reported as 46.4 to 55.1%. The “Renal clearance as share of UV-4 apparent systemic clearance” value (in vivo) was ≥ 50%.

Reference: article PMC9387934, “Randomized single oral dose phase 1 study of safety, tolerability, and pharmacokinetics of Iminosugar UV-4 Hydrochloride (UV-4B) in healthy subjects” (PLoS Neglected Tropical Diseases, 2022)
